The source of these data is patent publication US11464749B2, “Bismuth-thiol compositions and methods of use” (Microbion Corporation, priority 2018, dated 2022).

Converted amounts (≈) assume the structure as drawn. “And” between values parts separate entries of the source, which are not always exact repeats. Equal entries are not always repeated. Where two headings read alike, the source gives them in different places.

The test system of one experiment is Neisseria gonorrhoeae. Description: Agar dilution MIC (Example 11). The format is cell-based.
In the next experiment the test system is C. tropicalis. Nature of the experiment: Broth microdilution MIC, yeast (Example 11). The format is cell-based. The note with it: Candida tropicalis, FLU^R. On the technique in general: Dilution methods test growth across graded concentrations, often in twofold steps.
For another experiment, the system named is Candida albicans. Nature of the experiment: Broth microdilution antifungal susceptibility (Example 13). The format is cell-based. The note with it: Candida albicans.
A further experiment relates to A. terreus. Described as above. The format is cell-based. The following applies: Aspergillus terreus, A. terreus MMX 8229.
In the next experiment the test system is S. aureus ATCC 29213. The note with it: control strain ATCC 29213; per CLSI M100-S24 or provided by Microbion; cited from earlier work.
Another experiment deals with Enterococcus spp. Description: Broth microdilution MIC (Example 11). The following applies: read-out: MIC values.
Another experiment concerns E. faecium. Nature of the experiment: Broth microdilution MIC (Example 11). The following applies: Enterococcus faecium, VRE, VRE vanA Lev^R Cip^R Ery^R.
In another experiment the test system is P. aeruginosa. The note with it: P. aeruginosa isolate 103; CLSI QC range shown in parenthesis; cited from earlier work.
Another experiment concerns Burkholderia spp. Nature of the experiment: organism not typed. The following applies: during FIC testing; B. multivorans isolate 1795 (MEM-I, CIP-R). The format is cell-based.
In another experiment the test system is B. cepacia. Description: Broth microdilution MIC (Example 10). The note with it: initial MIC testing.
The subject of the next experiment is B. cenocepacia. Description: Broth microdilution MIC (Example 10). The note with it: initial MIC testing.
Another experiment concerns Escherichia coli. The note with it: E. coli MMX 102 (ATCC 25922); CLSI QC ranges shown in parenthesis; cited from earlier work.

For `CC(S)C(C)S.[Bi]` (stereo not shown) [BisBDT, bismuth-2,3-butanedithiol], the MIC in the experiment with Neisseria gonorrhoeae (ATCC49226, N. gonorrhoeae MMX 683 (ATCC 49226), QC) was 0.06 µg/mL; in the experiment with Neisseria gonorrhoeae (N. gonorrhoeae MMX 6757, CTX NS), 0.06 µg/mL; with Neisseria gonorrhoeae (N. gonorrhoeae MMX 6791, CIP^R), 0.12 µg/mL; against Neisseria gonorrhoeae (N. gonorrhoeae MMX 6792, CIP^R), 0.12 µg/mL; with Neisseria gonorrhoeae (N. gonorrhoeae MMX 6793, CIP^R), 0.25 µg/mL; in the experiment with Neisseria gonorrhoeae (read-out: MIC values, QC isolate, ciprofloxacin-resistant, ceftriaxone non-susceptible isolates) it was 0.06 to 0.25 µg/mL. Further, the MIC in the experiment on C. tropicalis (24 h, C. tropicalis MMX 7247) came out at 4 µg/mL; against C. tropicalis (24 h, C. tropicalis MMX 7248) it was 4 µg/mL; with C. tropicalis (24 h, C. tropicalis MMX 7360), 2 µg/mL; against C. tropicalis (48 h, C. tropicalis MMX 7247), 4 µg/mL; in the experiment on C. tropicalis (48 h, C. tropicalis MMX 7248), 8 µg/mL; in the experiment on C. tropicalis (48 h, C. tropicalis MMX 7360), 2 µg/mL. Also, the MIC in the experiment with Candida albicans (24 h, read-out: MIC0 (complete inhibition), isolate MMX 7053 (Susceptible), 24 hr) came out at 1 µg/mL; in the experiment with Candida albicans (24 h, read-out: MIC0 (complete inhibition), isolate MMX 7067 (FLU-R, VORI-R), 24 hr), 1 µg/mL; in the experiment with Candida albicans (24 h, read-out: MIC0 (complete inhibition), isolate MMX 7430 (Susceptible), 24 hr) it was 0.5 µg/mL; in the experiment on Candida albicans (24 h, read-out: MIC0 (complete inhibition), isolate MMX 7437 (FLU-I), 24 hr), 2 µg/mL; with Candida albicans (24 h, read-out: MIC0 (complete inhibition), isolate MMX 7445 (FLU-R, VORI-R), 24 hr), 2 µg/mL; in the experiment with Candida albicans (24 h, read-out: MIC2 (50% inhibition)), 1 µg/mL. The MIC in the experiment on Candida albicans (24 h, read-out: MIC2 (50% inhibition), isolate ATCC MYA-2732 (FLU-R, VORI-I), 24 hr) is 1 µg/mL; in the experiment with Candida albicans (24 h, read-out: MIC2 (50% inhibition), isolate MMX 7053 (Susceptible), 24 hr) it was 0.5 µg/mL; with Candida albicans (24 h, read-out: MIC2 (50% inhibition), isolate MMX 7067 (FLU-R, VORI-R), 24 hr), 0.5 µg/mL; with Candida albicans (24 h, read-out: MIC2 (50% inhibition), isolate MMX 7403 (Susceptible), 24 hr) it was 0.25 µg/mL; in the experiment on Candida albicans (24 h, read-out: MIC2 (50% inhibition), isolate MMX 7424 (CASP-R, MICA-R), 24 hr), 1 µg/mL; in the experiment with Candida albicans (24 h, read-out: MIC2 (50% inhibition), isolate MMX 7430 (Susceptible), 24 hr) it was 0.25 µg/mL. The MIC in the experiment on Candida albicans (24 h, read-out: MIC2 (50% inhibition), isolate MMX 7445 (FLU-R, VORI-R), 24 hr) amounted to 1 µg/mL; in the experiment on Candida albicans (24 h, read-out: MIC0 (complete inhibition)), 2 µg/mL; in the experiment with Candida albicans (ATCC90028, 24 h, read-out: MIC0 (complete inhibition), isolate ATCC 90028 (Susceptible), 24 hr) it was 2 µg/mL; in the experiment on Candida albicans (ATCC90028, 24 h, read-out: MIC2 (50% inhibition), isolate ATCC 90028 (Susceptible), 24 hr) it was 0.5 µg/mL; in the experiment with Candida albicans (ATCC204276, 24 h, read-out: MIC0 (complete inhibition), isolate ATCC 204276 (MICA-R), 24 hr) it was 1 µg/mL; with Candida albicans (ATCC204276, read-out: MIC2 (50% inhibition), isolate ATCC 204276 (MICA-R), result after 48 hr incubation (insufficient growth at 24 hr)) it was 1 µg/mL. The MIC was 0.25 µg/mL with A. terreus (24 hr, read-out: MIC0 24 hr); 1 µg/mL in the experiment with A. terreus (48 hr, read-out: MIC0 48 hr); 0.25 to 1 µg/mL with Enterococcus spp.; 0.5 µg/mL against E. faecium (E. faecium MMX 485); 1 µg/mL in the experiment on E. faecium (E. faecium MMX 752). Further, the “Expected MIC: goal (acceptable range)” value in the experiment with S. aureus ATCC 29213 was 0.25 mcg/mL and 0.25 (0.12-0.5) mcg/mL.
`C1C[S][Bi]([S]CC[S][Bi]2[S]CC[S]2)[S]1` [BisEDT, bismuth-1,2-ethanedithiol]: the “MIC, CLSI QC range” value with P. aeruginosa was “(0.5-4) μg/mL”.
As for `C[C@@H](O)[C@H]1C(=O)N2C(C(=O)O)=C(S[C@@H]3CN[C@H](C(=O)N(C)C)C3)[C@H](C)[C@H]12` [MEM], the MIC in the experiment with Burkholderia spp. stood at 4 µg/mL; against B. cepacia (B. cepacia isolate 0546), 4 µg/mL (≈ 10.4 µM); with B. cepacia (B. cepacia isolate 0547), 2 µg/mL (≈ 5.22 µM); against B. cepacia (B. cepacia isolate 1793), 4 µg/mL (≈ 10.4 µM); against B. cepacia (B. cepacia isolate 1794) it was 4 µg/mL (≈ 10.4 µM); against B. cepacia (B. cepacia isolate 9040), 4 µg/mL (≈ 10.4 µM). The MIC in the experiment with B. cenocepacia (B. cenocepacia isolate 0548 (CIP-R)) came out at 4 µg/mL (≈ 10.4 µM); in the experiment on B. cenocepacia (B. cenocepacia isolate 0813 (CPI-I)), 2 µg/mL (≈ 5.22 µM); against B. cenocepacia (B. cenocepacia isolate 1631) it was 4 µg/mL (≈ 10.4 µM); in the experiment with B. cenocepacia (B. cenocepacia isolate 1783), 4 µg/mL (≈ 10.4 µM); in the experiment with B. cenocepacia (B. cenocepacia isolate 8555), 4 µg/mL (≈ 10.4 µM).
Take `C[C@@H](O)[C@H]1C(=O)N2C(C(=O)O)=C(S[C@@H]3CN[C@H](C(=O)N(C)C)C3)[C@H](C)[C@H]12` [Meropenem, reference compound]: the “CLSI QC range of MIC” value in the experiment on Escherichia coli is reported as “(0.008-0.06) μg/mL”.
